Structures can show the parent of a compound that is named as a salt. Where two headings read alike, the source gives them in different places.
How the values were obtained:
[1] = assay type: in vivo, male Wistar rats
Method: (§1) Four weeks after establishing infection, five rats were sacrificed, the left tibia aseptically removed and quantitative cultures performed. The remaining animals underwent surgical débridement of the infection site with sterile saline and were arbitrarily assigned to one of five study arms for a duration of 21 days: No treatment (n=17), vancomycin HCl every 12 hours (n=17, 42 doses), BT2-peg2-vancomycin diformate every 12 hours (n=17, 42 doses), BT2-peg2-vancomycin diformate every 12 hours for 3.5 days and then every fourth day thereafter (n=16, 11 doses), and BT2-peg2-vancomycin diformate once per week (n=15, 3 doses). Vancomycin HCl was administered at 50 mg/kg and BT2-peg2-vancomycin diformate at 63.85 mg/kg (equivalent to 50 mg/kg active vancomycin); both were administered intraperitoneally. Twelve hours after completion of therapy (day 50), blood was collected via cardiac puncture for hematology and chemistry studies [performed by Charles River (Wilmington, MA)], and drug concentration studies. Rats were sacrificed with CO2. The left (infected) tibia from one animal in each group was collected for histopathology with bones placed in 10% neutralized buffered formalin (NBF), decalcified, embedded in […], prepared as longitudinal cuts and stained with hematoxylin and eosin. The left (infected) tibias from the remaining animals were weighed, cryopulverized and processed for quantitative and qualitative bacterial culture. Culture results were expressed as log10 cfu/g of bone tissue.
Kidneys from all animals were weighed, observed for abnormalities in size or color, and placed in NBF. Histological analysis was performed by Seventh Wave (Chesterfield, MO). Microscopic lesions were graded on a scale of one to four, with four being the most severe. Tubulointerstitial nephritis was characterized by multifocal non-suppurative interstitial inflammation, interstitial fibrosis, tubular epithelial degeneration, necrosis, and regeneration with frequent intra-tubular neutrophilic inflammation and cellular debris.

[2] = test system: Thirty clinical isolates of MRSA; assay type: cell-based, Staphylococcus aureus; settings: CLSI; 30 MRSA isolates
Method: (§2) Thirty clinical isolates of MRSA were studied. […] The minimum bactericidal concentration (MBC) of vancomycin HCl and BT2-peg2-vancomycin diacetate were also determined according to CLSI guidelines (Clinical and Laboratory Standards Institute [1999]).

[3] = test system: MRSA IDRL-4293; assay type: cell-based, Staphylococcus aureus; settings: MRSA isolate used in the experimental osteomyelitis model
Method: as §2
The experimental model described was performed in accordance with the guidelines of the Institutional Animal Care and Use Committee of the Mayo Clinic. Experimental osteomyelitis was established in 90 male Wistar rats using a modification of Zak’s model of experimental osteomyelitis (O'Reilly & Mader [1999]). […] Animals were anesthetized with ketamine and xylazine and the proximal third of the medial left tibia surgically exposed. A 0.5 mm hole was drilled into the medullary cavity. Fifty microliters of morrhuate sodium (a sclerosing agent) was injected into the cavity, followed by 50 μl sterile saline containing 10^7 colony forming units (cfu) of MRSA IDRL-4293. The muscle was reattached with coated vicryl sutures (Ethicon, Somerville, NJ). The skin was closed with tissue glue (Tissuemend, Butler Animal Health Supply, Dublin, OH) and wound clips (Harvard Apparatus, Holliston, MA). The wound was sprayed with a wound adhesive (Aluspray, Butler Animal Health Supply, Dublin, OH), along with a chewing repellent (Chewguard, Summit Hill Laboratories, Tinton Falls, NJ).

[4] = test system: Thirty clinical isolates of MRSA; test: microbe, parasite or virus in culture; assay type: cell-based, Staphylococcus aureus; settings: broth microdilution, CLSI, 30 MRSA isolates
Method: as §2

[5] = Hydroxyapatite (HA) binding assay; settings: 50 mM Tris–HCl pH 7.4, 1% DMSO
Method: 10^-5 M solutions of tetracycline, vancomycin HCl or BT2-peg2-vancomycin diacetate in 50 mM Tris–HCl buffer, pH 7.4, 1% DMSO were prepared. […] An HA slurry of 0.5 g HA/100 ml 50 mM Tris–HCl buffer, 1% DMSO was prepared. For each analyte, two samples were tested in triplicate. For one sample, 1 ml of 10^-5 M analyte and 100 μl 50 mM Tris–HCl buffer, 1% DMSO was pipetted into a microcentrifuge tube. For the second sample, 1 ml of 10^-5 M analyte and 100 μl of the HA slurry was pipetted into a microcentrifuge tube. The samples were mixed gently by inversion for five minutes and then centrifuged at 12,000 g for three minutes to sediment the HA. The supernatant was transferred to another microcentrifuge tube. An electronic spectral scan (ultraviolet–visible) from 220–520 nm was obtained for each analyte using a Varian Cary 300 Bio Scan (Agilent Technologies, Santa Clara, CA). The blank was 50 mM Tris–HCl buffer, 1% DMSO. The wavelength of maximum absorbance (λmax) was determined, and the extinction coefficient (ϵ) calculated using the Beer-Lambert law. Absorbance of the samples incubated with HA was measured at λmax, and the molar concentration of the analyte determined using the Beer-Lambert law and the previously calculated extinction coefficient. The fraction adsorbed to HA was calculated for each sample. […]

[6] = Plasma concentrations in infected animals by LC/MS; assay type: in vivo, male Wistar rats; settings: 12 h after last dose; twice daily for 21 days ip; vancomycin HCl 50 mg/kg (n=16), BTV 63.85 mg/kg (n=13); LC/MS
Method: as §1
Plasma concentrations of BT2-peg2-vancomycin in infected animals were measured by liquid chromatography/mass spectrometry (LC/MS). […] The elutes (50 μl) were diluted with 450 μl 5% ACN in 0.1% formic acid and analyzed by Accela LC System (Thermo Scientific, San Jose, CA) coupled with a LTQ-Orbitrap XL mass spectrometer (Thermo Scientific, San Jose, CA). […] Elutes from the LC column were ionized by electrospray ionization and BT2-peg2-vancomycin and teicoplanin were detected by multiple reaction monitoring. […]
Plasma concentrations of vancomycin were measured by LC/MS. […]

[7] = test system: MRSA recovered from treated or untreated animals; assay type: cell-based, Staphylococcus aureus
Method: as §2
Ten MRSA colonies per animal recovered from quantitative bacterial cultures were tested for susceptibility to BT2-peg2-vancomycin diformate and/or vancomycin HCl.

## CN[C@H](CC(C)C)C(=O)N[C@H]1C(=O)N[C@@H](CC(N)=O)C(=O)N[C@H]2C(=O)N[C@H]3C(=O)N[C@H](C(=O)N[C@H](C(=O)NCCOCCOCC(=O)Nc4ccc(OC)c(C(N)=O)c4O)c4cc(O)cc(O)c4-c4cc3ccc4O)[C@H](O)c3ccc(c(Cl)c3)Oc3cc2cc(c3O[C@@H]2O[C@H](CO)[C@@H](O)[C@H](O)[C@H]2O[C@H]2C[C@](C)(N)[C@H](O)[C@H](C)O2)Oc2ccc(cc2Cl)[C@H]1O [BT2-peg2-vancomycin diformate]
[1]; rat, in vivo
  kidney size: ~ 25.5 × 17.5 mm
[1]; rat, in vivo, ip
  kidney gross appearance (color, size): lighter in color and larger
  kidney histology: tubulointerstitial nephritis grade: 4

## CN[C@H](CC(C)C)C(=O)N[C@H]1C(=O)N[C@@H](CC(N)=O)C(=O)N[C@H]2C(=O)N[C@H]3C(=O)N[C@H](C(=O)N[C@H](C(=O)O)c4cc(O)cc(O)c4-c4cc3ccc4O)[C@H](O)c3ccc(c(Cl)c3)Oc3cc2cc(c3O[C@@H]2O[C@H](CO)[C@@H](O)[C@H](O)[C@H]2O[C@H]2C[C@](C)(N)[C@H](O)[C@H](C)O2)Oc2ccc(cc2Cl)[C@H]1O [vancomycin HCl]
[2]
  MBC at which 50% of isolates were killed: 2 µg/mL
  MBC range: 0.5 to 64 µg/mL
[3]
  MBC: 2 µg/mL
  MIC: 2 µg/mL
[4]
  MIC range: 0.5 to 2 µg/mL
[1]; every 12 hours for 21 days ip
  kidney gross appearance (color, size): deep maroon color and size consistent with body weight
[1]; every 12 hours for 21 days ip, lesions graded one to four, four most severe
  kidney histology: tubulointerstitial nephritis grade: did not exhibit microscopic abnormalities
[1]; twice daily for 21 days ip, vancomycin HCl 50 mg/kg, BTV 63.85 mg/kg, no treatment 1.4
  Kidney weight, median (range): 1.4 (1.1-1.7) grams
[1]; twice daily for 21 days ip, vancomycin HCl 50 mg/kg, BTV 63.85 mg/kg, normal 9–30
  BUN, median (range): 18.5 (15–21) mg/dl
[1]; twice daily for 21 days ip, vancomycin HCl 50 mg/kg, BTV 63.85 mg/kg, normal range 0.4 to 0.7
  Creatinine, median (range): 0.5 (0.4-0.6) mg/dl
[1]; twice daily for 21 days ip, vancomycin HCl 50 mg/kg, BTV 63.85 mg/kg, normal range 3.2 to 4.5
  Albumin, median (range): 3.4 (3.1-3.6) g/dl

## CN(C)[C@@H]1C(O)=C(C(N)=O)C(=O)[C@@]2(O)C(O)=C3C(=O)c4c(O)cccc4[C@@](C)(O)[C@H]3C[C@@H]12 [tetracycline]
[5]; at 10^-5 M, reference analyte
  fraction bound to HA: approximately 50%

## Cc1onc(-c2ccccc2)c1C(=O)N[C@@H]1C(=O)N2[C@@H]1SC(C)(C)[C@@H]2C(=O)O [oxacillin]
[4]; Staphylococcus aureus, read-out: MIC at which 50% of the isolates were inhibited (MIC50)
  MIC50: > 128 µg/mL

## CN[C@H](CC(C)C)C(=O)N[C@H]1C(=O)N[C@@H](CC(N)=O)C(=O)N[C@H]2C(=O)N[C@H]3C(=O)N[C@H](C(=O)N[C@H](C(=O)O)c4cc(O)cc(O)c4-c4cc3ccc4O)[C@H](O)c3ccc(c(Cl)c3)Oc3cc2cc(c3O[C@@H]2O[C@H](CO)[C@@H](O)[C@H](O)[C@H]2O[C@H]2C[C@](C)(N)[C@H](O)[C@H](C)O2)Oc2ccc(cc2Cl)[C@H]1O [vancomycin]
[2]
  MBC at which 90% of isolates were killed (MBC90): 16 µg/mL
[6]
  Plasma concentration, median: 710 ng/mL
[5]; 10^-5 M analyte, HA slurry, mixed 5 min, UV–vis at λmax, triplicate, % bound/% tetracycline bound × 100
  HA binding index: 0
[7]; all treatment groups
  increase in MIC of recovered isolates: No increase in vancomycin or BT2-peg2-vancomycin MIC of more than one doubling dilution
[7]; isolates from animals treated with BT2-peg2-vancomycin diformate once weekly
  MIC of recovered MRSA: 1 to 2 µg/mL
[7]; isolates from animals treated with BT2-peg2-vancomycin diformate twice daily
  MIC of recovered MRSA: 1 to 4 µg/mL
[7]; isolates from animals treated with BT2-peg2-vancomycin diformate twice daily for 3.5 days then once every fourth day
  MIC of recovered MRSA: 1 to 2 µg/mL
[7]; isolates recovered from the untreated group
  MIC of recovered MRSA: 1 to 2 µg/mL
[7]; isolates recovered from vancomycin HCl-treated animals
  MIC of recovered MRSA: 2 to 4 µg/mL
[4]
  MIC at which 50% of the isolates were inhibited (MIC50): 1 µg/mL
  MIC at which 90% of the isolates were inhibited (MIC90): 2 µg/mL

From article PMC4320154, “Treatment of Methicillin-resistant Staphylococcus aureus experimental Osteomyelitis with bone-targeted Vancomycin” (SpringerPlus, 2013)
